The target in assay [1] is T1, SARS-CoV-2 PLpro (nsp3 1564–1878) (Severe acute respiratory syndrome coronavirus 2, UniProt P0DTD1). The assay can be described thus: biochemical. Details: FRET-quenched peptide (Pro3) cleavage by PLpro, 10 min pre-incubation, slope over 20 min, normalised to no-compound control. To be noted: read-out: % of control remaining.
For assay [2], the target named is T1, SARS-CoV-2 PLpro (nsp3 1564–1878). The assay can be described thus: biochemical. The conditions noted are these: read-out: % of control remaining. Details: FRET-quenched peptide (Pro3) cleavage by PLpro, 10 min pre-incubation, slope over 20 min, normalised to no-compound control. The source holds these as a separate data set.

Structures can show the parent of a compound that is named as a salt. Where two headings read alike, the source gives them in different places.

As for `COc1ccccc1N1CCN(CC(O)COc2cccc3ccccc23)CC1` (stereo not drawn) [Naftopidil dihydrochloride], the remaining activity at 1.25 µM in assay [1] (Well no.=1084, low concentration screen) was 96.1%. Also, in assay [2] (Well no.=1084, high concentration screen), the remaining activity at 3.75 µM was determined as 95.6%.
As for `COc1ccccc1N1CCN(CC(O)COc2cccc3ccccc23)CC1` (stereo not drawn) [Naftopidil], in assay [1] (Well no.=7523, low concentration screen), the remaining activity at 1.25 µM worked out at 101%. In addition, the remaining activity at 3.75 µM in assay [2] (Well no.=7523, high concentration screen) was 97.2%.
For the compound `Oc1ccc2c3c1O[C@H]1[C@@H](O)CC[C@@]4(O)[C@@H](C2)N(CC2CCC2)CC[C@]314` [Nalbuphine], the remaining activity at 1.25 µM in assay [1] was found to be 95.6%. In assay [2], the remaining activity at 3.75 µM came out at 97.3%.
In the case of `CCn1cc(C(=O)O)c(=O)c2ccc(C)nc21` [Nalidixic acid sodium], the remaining activity at 1.25 µM in assay [1] (Well no.=951, low concentration screen) amounted to 101%. Also, the remaining activity at 3.75 µM in assay [2] (Well no.=951, high concentration screen) was 102%.
For `CCn1cc(C(=O)O)c(=O)c2ccc(C)nc21` [Nalidixic acid], in assay [1] (Well no.=3256, low concentration screen), the remaining activity at 1.25 µM was found to be 99.8%. Also, the remaining activity at 3.75 µM in assay [2] (Well no.=3256, high concentration screen) turned out to be 99.3%.
With `C=CCN1CC[C@]23c4c5ccc(O)c4O[C@H]2/C(=N/N=C2\CC[C@@]4(O)[C@H]6Cc7ccc(O)c8c7[C@@]4(CCN6CC=C)[C@H]2O8)CC[C@@]3(O)[C@H]1C5` [Naloxonazine dihydrochloride], the remaining activity at 1.25 µM in assay [1] (Well no.=894, low concentration screen) amounted to 105%. In addition, the remaining activity at 3.75 µM in assay [2] (Well no.=894, high concentration screen) was determined as 107%.
With `C=CCN1CC[C@]23c4c5ccc(O)c4O[C@H]2/C(=N/N=C2\CC[C@@]4(O)[C@H]6Cc7ccc(O)c8c7[C@@]4(CCN6CC=C)[C@H]2O8)CC[C@@]3(O)[C@H]1C5` [Naloxonazine], the remaining activity at 1.25 µM in assay [1] (Well no.=2062, low concentration screen) was 101%. In addition, in assay [2] (Well no.=2062, high concentration screen), the remaining activity at 3.75 µM was 105%.
As for `C=CCN1CC[C@]23c4c5ccc(O)c4O[C@H]2/C(=N/NC(=O)c2ccccc2)CC[C@@]3(O)[C@H]1C5` [Naloxone benzoylhydrazone], in assay [1] (Well no.=798, low concentration screen), the remaining activity at 1.25 µM was 93.2%. Also, the remaining activity at 3.75 µM in assay [2] (Well no.=798, high concentration screen) was determined as 99.5%.
As to `C=CCN1CC[C@]23c4c5ccc(O)c4O[C@H]2C(=O)CC[C@@]3(O)[C@H]1C5` [Naloxone hydrochloride], the remaining activity at 1.25 µM in assay [1] (Well no.=907, low concentration screen) came out at 103%. Further, in assay [2] (Well no.=907, high concentration screen), the remaining activity at 3.75 µM came to 105%.
Regarding `C=CCN1CC[C@]23c4c5ccc(O)c4O[C@H]2C(=O)CC[C@@]3(O)[C@H]1C5` [Naloxone], in assay [1] (Well no.=2060, low concentration screen), the remaining activity at 1.25 µM is 104%. Besides, the remaining activity at 3.75 µM in assay [2] (Well no.=2060, high concentration screen) was found to be 103%.
`O=C1CC[C@@]2(O)[C@H]3Cc4ccc(O)c5c4[C@@]2(CCN3CC2CC2)[C@H]1O5` [Naltrexone (Hydrochloride)]: the remaining activity at 1.25 µM in assay [1] (Well no.=8147, low concentration screen) stood at 98.3%. Further, in assay [2] (Well no.=8147, high concentration screen), the remaining activity at 3.75 µM is 95.1%.
Take `O=C1CC[C@@]2(O)[C@H]3Cc4ccc(O)c5c4[C@@]2(CCN3CC2CC2)[C@H]1O5` [Naltrexone hydrochloride]: in assay [1] (Well no.=997, low concentration screen), the remaining activity at 1.25 µM amounted to 97.6%. In addition, the remaining activity at 3.75 µM in assay [2] (Well no.=997, high concentration screen) came to 100%.
For `O=C1CC[C@@]2(O)[C@H]3Cc4ccc(O)c5c4[C@@]2(CCN3CC2CC2)[C@H]1O5` [Naltrexone.HCl], the remaining activity at 1.25 µM in assay [1] (Well no.=1883, low concentration screen) turned out to be 88.3%. Also, the remaining activity at 3.75 µM in assay [2] (Well no.=1883, high concentration screen) worked out at 92.8%.
On to `Oc1ccc2c3c1O[C@H]1c4oc5ccccc5c4C[C@@]4(O)[C@@H](C2)N(CC2CC2)CC[C@]314` [Naltriben methanesulfonate hydrate], for which, in assay [1] (Well no.=1698, low concentration screen), the remaining activity at 1.25 µM was determined as 95.8%. Also, in assay [2] (Well no.=1698, high concentration screen), the remaining activity at 3.75 µM came to 95.9%.
`Oc1ccc2c3c1O[C@H]1c4oc5ccccc5c4C[C@@]4(O)[C@@H](C2)N(CC2CC2)CC[C@]314` [Naltriben methanesulfonate]: the remaining activity at 1.25 µM in assay [1] (Well no.=1036, low concentration screen) was 92.8%. In addition, the remaining activity at 3.75 µM in assay [2] (Well no.=1036, high concentration screen) came to 97.4%.
For the compound `Oc1ccc2c3c1O[C@H]1c4[nH]c5ccccc5c4C[C@@]4(O)[C@@H](C2)N(CC2CC2)CC[C@]314` [Naltrindole (hydrochloride)], the remaining activity at 1.25 µM in assay [1] (Well no.=7227, low concentration screen) is 103%. Besides, the remaining activity at 3.75 µM in assay [2] (Well no.=7227, high concentration screen) was found to be 97.5%.
Consider `Oc1ccc2c3c1O[C@H]1c4[nH]c5ccccc5c4C[C@@]4(O)[C@@H](C2)N(CC2CC2)CC[C@]314` [Naltrindole hydrochloride], for which the remaining activity at 1.25 µM in assay [1] (Well no.=1053, low concentration screen) stood at 92.8%. The remaining activity at 3.75 µM in assay [2] (Well no.=1053, high concentration screen) was 93.2%.
Consider `Oc1ccc2c3c1O[C@H]1c4[nH]c5ccccc5c4C[C@@]4(O)[C@@H](C2)N(CC2CC2)CC[C@]314` [Naltrindole.HCl], for which, in assay [1] (Well no.=1644, low concentration screen), the remaining activity at 1.25 µM was found to be 106%. Besides, the remaining activity at 3.75 µM in assay [2] (Well no.=1644, high concentration screen) amounted to 104%.
On to `CNC(=O)[C@H]1O[C@@H](n2cnc3c(NCc4cccc(I)c4)nc(Cl)nc32)[C@H](O)[C@@H]1O` [Namodenoson], for which, in assay [1] (Well no.=8451, low concentration screen), the remaining activity at 1.25 µM came out at 104%. Also, the remaining activity at 3.75 µM in assay [2] (Well no.=8451, high concentration screen) is 104%.
With `CO[C@H]1CC[C@@H](O[C@H]2C[C@H]([C@]3(C)CC[C@]4(C[C@H](O)[C@@H](C)[C@@H]([C@@H](C)/C=C(\C)C(=O)[C@H](C)C[C@H](C)C(=O)O)O4)O3)O[C@]3(O[C@@H]([C@H]4O[C@@](O)(CO)[C@H](C)C[C@@H]4C)C[C@@H]3C)[C@@H]2C)O[C@@H]1C` [Nanchangmycin], in assay [1] (Well no.=4861, low concentration screen), the remaining activity at 1.25 µM came to 101%. The remaining activity at 3.75 µM in assay [2] (Well no.=4861, high concentration screen) came to 104%.
With `c1ccc2c(CC3=NCCN3)cccc2c1` [Naphazoline (hydrochloride)], in assay [1] (Well no.=7529, low concentration screen), the remaining activity at 1.25 µM came to 96.6%. Also, the remaining activity at 3.75 µM in assay [2] (Well no.=7529, high concentration screen) came out at 97.5%.
As for `c1ccc2c(CC3=NCCN3)cccc2c1` [Naphazoline], the remaining activity at 1.25 µM in assay [1] (Well no.=2007, low concentration screen) worked out at 105%. Further, the remaining activity at 3.75 µM in assay [2] (Well no.=2007, high concentration screen) stood at 103%.
`COc1ccc2cc([C@H](C)C(=O)O)ccc2c1` [Naproxen]: the remaining activity at 1.25 µM in assay [1] (Well no.=1869, low concentration screen) stood at 90.4%. In addition, the remaining activity at 3.75 µM in assay [2] (Well no.=1869, high concentration screen) is 87.1%.
As to `CC[C@@H](C(=O)O)[C@@H]1O[C@@H]([C@@H](C)[C@H](O)[C@H](C)C(=O)[C@H](CC)[C@H]2O[C@]3(C=C[C@@H](O)[C@]4(CC[C@@](C)([C@H]5CC[C@](O)(CC)[C@H](C)O5)O4)O3)[C@H](C)C[C@@H]2C)[C@@H](C)C[C@@H]1C` [Narasin], in assay [1] (Well no.=3258, low concentration screen), the remaining activity at 1.25 µM came to 94.4%. In assay [2] (Well no.=3258, high concentration screen), the remaining activity at 3.75 µM came out at 96%.
Turning to `CNS(=O)(=O)CCc1ccc2[nH]cc(C3CCN(C)CC3)c2c1` [Naratriptan (hydrochloride)], in assay [1] (Well no.=7385, low concentration screen), the remaining activity at 1.25 µM was 100%. Further, in assay [2] (Well no.=7385, high concentration screen), the remaining activity at 3.75 µM was determined as 100%.
`CNS(=O)(=O)CCc1ccc2[nH]cc(C3CCN(C)CC3)c2c1` [Naratriptan HCl]: the remaining activity at 1.25 µM in assay [1] (Well no.=4909, low concentration screen) stood at 97.9%. Also, the remaining activity at 3.75 µM in assay [2] (Well no.=4909, high concentration screen) came out at 99.8%.
`O=C1C[C@@H](c2ccc(O)cc2)Oc2cc(O)cc(O)c21` [Naringenin]: the remaining activity at 1.25 µM in assay [1] (Well no.=3326, low concentration screen) was determined as 96.4%. For the same compound, the remaining activity at 3.75 µM in assay [2] (Well no.=3326, high concentration screen) is 98.3%.
`C[C@@H]1O[C@@H](O[C@H]2[C@H](Oc3cc(O)c(C(=O)CCc4ccc(O)cc4)c(O)c3)O[C@H](CO)[C@@H](O)[C@@H]2O)[C@H](O)[C@H](O)[C@H]1O` [Naringin Dihydrochalcone]: in assay [1] (Well no.=8148, low concentration screen), the remaining activity at 1.25 µM was 106%. For the same compound, the remaining activity at 3.75 µM in assay [2] (Well no.=8148, high concentration screen) came to 97.1%.
Turning to `C[C@@H]1O[C@@H](O[C@H]2[C@H](Oc3cc(O)c4c(c3)O[C@H](c3ccc(O)cc3)CC4=O)O[C@H](CO)[C@@H](O)[C@@H]2O)[C@H](O)[C@H](O)[C@H]1O` [Naringin], the remaining activity at 1.25 µM was found to be 98.4% in assay [1] (Well no.=3665, low concentration screen) and 97.4% in assay [1] (Well no.=8098, low concentration screen). Further, the remaining activity at 3.75 µM was 99.9% in assay [2] (Well no.=3665, high concentration screen) and 97.5% in assay [2] (Well no.=8098, high concentration screen).

Values taken from publication PMC8286840, “Identifying SARS-CoV-2 antiviral compounds by screening for small molecule inhibitors of Nsp3 papain-like protease” (Biochemical Journal, 2021).
